Here are results for five compounds from patent publication US10166177B2, “Silk protein fragment compositions and articles manufactured therefrom” (Silk, Inc., priority 2013, dated 2019).

Format in all cases: physicochemical
Data set [1] is described as follows: Gel formation with vitamin C derivatives in 2% silk solution. The settings on record: 100 mg of vitamin C derivative in 15 mL of 2% silk solution. As to the method: The Tables in FIGS. 89A-89B summarize embodiments of gels of the present disclosure. Ascorbic acid-2-glucoside was the most successful vitamin C derivative at gel formation with gel being formed in a 2% silk solution in 3 days. […] In all cases 100 mg of vitamin C derivative was mixed in 15 mL of 2% silk solution, and all gels had the same appearance as gels created with ascorbic acid.
Gels were also cast with combinations of two vitamin C options. In each case, at least one of the vitamin C options was known to cause gelation (L-ascorbic acid or ascorbic acid-2-glucoside). All combination gels were able to gel at 1% total vitamin C additive concentration. […] Without wishing to be bound by theory, it appears there is a relationship between vitamin C concentration, silk concentration, and gelation. An increase in vitamin C at a given concentration of silk will result in a longer time to gelation or inhibit gelation. This may be due to the vitamin C molecule physically blocking interaction between silk protein fragments or cross-linking of silk protein. Modification to pH may allow additional concentrations of vitamin C and derivatives thereof to be added.

Data set [2] is described as follows: Dissolution of vitamin C derivative in aqueous silk solution. The text has this:
Ascorbyl tetraisopalmitate is a highly viscous, oil soluble liquid that might need the help of an emulsifier to possible dissolve in aqueous silk solution.

Data set [3] in a line: HPLC chromatograms of vitamin C samples (degradation products). The settings on record: after 1 hour at ambient conditions without chemical stabilization. As to the method: FIGS. 36A and 36B show HPLC chromatograms from samples comprising vitamin C. […] No degradation products were visible.
FIGS. 36A and 36B show two HPLC chromatograms from samples comprising vitamin C. […] No degradation products were visible. FIG. 59 is a table summarizing the vitamin C concentration in silk protein fragment-films (2% silk films air dried at RT) of the present disclosure. In FIG. 59 processing conditions included 100° C. extraction for 20 min, RT rinse, LiBr in 60° C. oven for 4-6 hours. FIG. 60 is a table summarizing the stability of vitamin C in chemically stabilized solutions. FIGS. 89A-89B are tables summarizing vitamin C stability in SPF gels without chemical stabilizers as compared to chemically stabilized vitamin C in competitive anti-aging skincare products. […] Without wishing to be bound by theory, it appears there is a relationship between vitamin C concentration, silk concentration, and gelation. An increase in vitamin C at a given concentration of silk will result in a longer time to gelation or inhibit gelation. This may be due to the vitamin C molecule physically blocking interaction between silk protein fragments or cross-linking of silk protein.

`O=C1O[C@H]([C@@H](O)CO)C(O)=C1O[C@H]1O[C@H](CO)[C@@H](O)[C@H](O)[C@H]1O` [Ascorbic acid-2-glucoside]: in data set [1], the “time to gel formation” value is listed as 3 days.
Take `CCCCCCCCC(CCCCCC)C(=O)OC[C@H](OC(=O)C(CCCCCC)CCCCCCCC)[C@H]1OC(=O)C(OC(=O)C(CCCCCC)CCCCCCCC)=C1OC(=O)C(CCCCCC)CCCCCCCC` (some centres unmarked) [Ascorbyl tetraisopalmitate]: in data set [2], the “ability to dissolve or be dispersed in aqueous silk solution” value is recorded as “unable to dissolve or be dispersed”.
For the compound `O=C1O[C@H]([C@@H](O)CO)C([O-])=C1OP(=O)([O-])[O-].[Na+].[Na+].[Na+]` [Sodium Ascorbyl Phosphate (Aromantic), Sodium Ascorbyl Phosphate], in data set [1], the “time to gel formation” value is “failed to create a gel”.
Turning to `O=C1O[C@H]([C@@H](O)CO)C([O-])=C1OP(=O)([O-])[O-].[Na+].[Na+].[Na+]` [Sodium ascorbyl phosphate from DSM, Sodium ascorbyl phosphate], the “time to gel formation” value in data set [1] stood at 28 days.
For `O=C1O[C@H]([C@@H](O)CO)C(O)=C1O` [vitamin C, L-ascorbic acid], the “vitamin C degradation products (HPLC)” value in data set [3] is given as “degradation products are visible”.
